# Experimental data: patent US20260166016A1, “GPR139 RECEPTOR AGONIST, PREPARATION METHOD THEREFOR, AND APPLICATION THEREOF” (NEUBO APPTECH CO., LTD., priority 2022, published 2026)
# Target: T1, GPR139 (Homo sapiens, UniProt Q6DWJ6)
# T1 construct: expressed in transfected cells; host or cells: HEK293
# T1 sequence (Q6DWJ6 1-353): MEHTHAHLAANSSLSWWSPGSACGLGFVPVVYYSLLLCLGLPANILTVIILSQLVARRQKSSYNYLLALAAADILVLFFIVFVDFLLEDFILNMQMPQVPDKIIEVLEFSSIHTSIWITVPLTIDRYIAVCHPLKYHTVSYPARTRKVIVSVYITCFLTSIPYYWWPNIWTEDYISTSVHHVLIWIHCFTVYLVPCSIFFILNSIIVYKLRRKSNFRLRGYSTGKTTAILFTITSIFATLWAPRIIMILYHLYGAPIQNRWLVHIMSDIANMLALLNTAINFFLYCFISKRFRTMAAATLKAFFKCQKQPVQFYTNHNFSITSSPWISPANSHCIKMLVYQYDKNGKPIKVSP
# Experiment: GPR139 FLIPR cell calcium signal detection in GPR139-transfected HEK293 cells
# Assay type: cell-based
# Settings: HEK293 cells transfected with GPR139, read-out: EC50 values of compounds for GPR139
# Method: HEK293 cells were grown in a 10 cm culture dish containing DMEM complete medium (containing glutamine, sodium pyruvate, penicillin/streptomycin, 10% fetal bovine serum) and incubated at 37° C. in a 5% CO2 incubator until 90% confluency. Then subculture twice a week at a ratio of 1:5. During cell passaging, the culture medium was first completely removed, washed once with 4 mL of DPBS, and then 3 mL of trypsin digestion solution was added and mixed well. When cell dissociation was observed, the trypsin solution was aspirated and 5 mL of complete DMEM medium was added. The cells were dispersed by pipetting, and 1 mL of cell suspension was added to each of five new 10 cm culture dishes. Then, 7 mL of complete DMEM medium was supplemented to each dish. After mixing, the cells were cultured at 37° C. in a 5% CO2 incubator.
# On the transfection day, cells were digested and seeded into one 10 cm culture dish at appropriate density. 6 mL of DMEM/F12 medium (containing glutamine, sodium pyruvate, HEPES, and fetal bovine serum) was added, and the cells were cultured for 5 hours at 37° C. in 5% CO2. A 50 mL sterile centrifuge tube (Tube A) was taken, and 1 mL of serum-free DMEM/F12 medium (containing glutamine, sodium pyruvate, and HEPES) was added, followed by 10 μg of GPR139 DNA. The mixture was mixed well. Another 50 mL sterile centrifuge tube (Tube B) was taken, and 1 mL of serum-free DMEM medium (containing glutamine, sodium pyruvate, and HEPES) was added, followed by 60 μL of Fugene HD transfection reagent. The mixture was mixed well. 1 mL of Fugene HD transfection reagent from Tube B was transferred to Tube A, mixed well, and incubated at room temperature for 20 minutes. 2 mL of DMEM/F12 medium (containing glutamine, sodium pyruvate, HEPES, and fetal bovine serum) was added to Tube A. After mixing, 4 mL of mixture from Tube A was transferred to the prepared 10 cm dish (total volume 10 mL). The cells were cultured for 20-24 hours at 37° C. in 5% CO2.
# The next day, the transfected cells were digested with trypsin digestion solution, and appropriate DMEM/F12 medium (containing glutamine, sodium pyruvate, HEPES, penicillin/streptomycin, fetal bovine serum) was added. The cells were seeded into Matrigel coated 384-well plates with a cell density of 6.67×10^6 cells/mL, 30 μL/well. The 384-well plates were cultured at 37° C. in 5% CO2.
# On the third day, 10 μL/well of FLIPR dye (diluted in HEPES solution containing Pluronic and Probenecid) was added to the 384-well cell plate. And the plate was incubated for 40 minutes at 37° C. in 5% CO2. Diluted compounds were added to the cell plate and calcium signals were measured using a FLIPR plate reader.
# Data were analyzed using XL-fit software to obtain EC50 values for each compound.
smiles,measurement,value
C[C@H](NC(=O)CNC(=O)c1cc(Cl)ccn1)c1c(F)cccc1F [NRB181],EC50,0.1 to 100 nM
